# From patent publication US10632125B2, “MTH1 inhibitors for treatment of inflammatory and autoimmune conditions” (THOMAS HELLEDAYS STIFTELSE FÖR MEDICINSK FORSKNING, priority 2014, dated 2020)
# Molecular target: MTH1 (Homo sapiens, UniProt P36639)
# Assay: MTH1 enzymatic assay (malachite green, coupled to pyrophosphatase)
# Type: biochemical
# Conditions: dGTP 100 μM, MTH1 6 nM; 96- or 384-well format; read-out: IC50
# Protocol: MTH1 catalyzes the hydrolysis of dGTP to dGMP and PPi. By coupling the reaction to pyrophosphatase added in excess PPi is converted to Pi that can be detected by using the malachite green assay reagent. […] 96-well method: Briefly, the compound to be analyzed is diluted in DMSO in a 1:3 dilution series generating 12 different compound concentrations giving a final DMSO concentration of 1% in the assay well. MTH1 diluted in assay buffer (100 mM Tris-acetate, 40 mM NaCl, 10 mM magnesium acetate, 1 mM DTT and 0.005% Tween 20) fortified with E. coli pyrophosphatase (0.2 U/ml) is added to a final concentration of 6 nM. dGTP diluted in assay buffer is added to a final concentration of 100 μM. The reaction mixture is incubated for 15 minutes at 22° C. To 100 μl reaction mixture, 25 μl Malachite green assay regent (0.095% Malachite green in 17% H2SO4, 1.5% Ammonium molybdate, 0.17% Tween 20) is added, followed by incubation with shaking for 15 minutes at 22° C. The absorbance of the assay plate is read at 630 nm using a Hidex Sense Multilabel plate reader. The IC50 value is determined by fitting a dose response curve to the data points using nonlinear regression analysis and the equation Y=Bottom+(Top-Bottom)/(1+10^((Log IC50−X)*HillSlope)), where Y is the read absorbance at 630 nm and X is log [compound].
# 384-Well Method: The compounds to be tested are nano-dispensed, in 11 concentrations, directly in assay plates, with a final DMSO concentration <1%. The protocol and the reaction mixture are the same as for the 96-well assay, with a total reaction volume of 50 μl/well to which 10 μl of Malachite green reagent is added. All additions to the assay plates are made with multidrop.
row,IC50 [nM],SMILES
1,< 200,"CNc1cc(-c2ccc(-c3ccccc3)cc2F)nc(N)n1 [Example 50, 6-(2-fluoro-4-phenylphenyl)-4-N-methylpyrimidine-2,4-diamine.]"
2,< 200,"C=CCNc1cc(-c2ccc(Cl)cc2)nc(N)n1 [Example 53, 6-(4-chlorophenyl)-4-N-(prop-2-en-1-yl)pyrimidine-2,4-diamine]"
3,< 200,"Nc1nc(NC2CCC2)cc(-c2ccc(Cl)cc2)n1 [Example 58, 6-(4-chlorophenyl)-4-N-cyclobutylpyrimidine-2,4-diamine]"
4,< 200,"CCCCCNc1cc(-c2cccc(Cl)c2Cl)nc(N)n1 [Example 61, 6-(2,3-dichlorophenyl)-4-N-pentylpyrimidine-2,4-diamine]"
5,< 200,"CC(C)(C)Nc1cc(-c2cccc(Cl)c2Cl)nc(N)n1 [Example 63, 4-N-tert-butyl-6-(2,3-dichlorophenyl)pyrimidine-2,4-diamine]"
6,< 200,"CNc1cc(-c2ccc(Cl)c(Cl)c2)nc(N)n1 [Example 68, 6-(3,4-dichlorophenyl)-4-N-methylpyrimidine-2,4-diamine]"
7,< 200,"CNc1cc(-c2ccc(C(C)(C)C)cc2)nc(N)n1 [Example 69, 6-(4-tert-butylphenyl)-4-N-methylpyrimidine-2,4-diamine]"
8,< 200,"CNc1cc(-c2ccc(C)cc2)nc(N)n1 [Example 70, 4-N-methyl-6-(4-methylphenyl)pyrimidine-2,4-diamine]"
9,< 200,"CNc1cc(-c2ccc(Cl)cc2Cl)nc(N)n1 [Example 71, 6-(2,4-dichlorophenyl)-4-N-methylpyrimidine-2,4-diamine]"
10,< 200,"CNc1cc(-c2ccc(F)cc2F)nc(N)n1 [Example 75, 6-(2,4-difluorophenyl)-4-N-methylpyrimidine-2,4-diamine]"
11,< 200,"CNc1cc(-c2cc(F)ccc2OC)nc(N)n1 [Example 76, 6-(5-fluoro-2-methoxyphenyl)-4-N-methylpyrimidine-2,4-diamine]"
12,< 200,"CNc1cc(-c2ccc(OC)c(F)c2)nc(N)n1 [Example 82, 6-(3-fluoro-4-methoxyphenyl)-4-N-methylpyrimidine-2,4-diamine]"
13,< 200,"CNc1cc(-c2ccc(F)c(F)c2)nc(N)n1 [Example 83, 6-(3,4-difluorophenyl)-4-N-methylpyrimidine-2,4-diamine]"
14,< 200,"CNc1cc(-c2ccc(OC(C)C)cc2)nc(N)n1 [Example 84, 4-N-methyl-6-[4-(propan-2-yloxy)phenyl]pyrimidine-2,4-diamine]"
15,< 200,"CNc1cc(-c2cccc(C)c2C)nc(N)n1 [Example 86, 6-(2,3-dimethylphenyl)-4-N-methylpyrimidine-2,4-diamine]"
16,< 200,"CNc1cc(-c2ccc(Cl)c(F)c2)nc(N)n1 [Example 88, 6-(4-chloro-3-fluorophenyl)-4-N-methylpyrimidine-2,4-diamine]"
17,< 200,"CNc1cc(-c2cccc(C(F)(F)F)c2Cl)nc(N)n1 [Example 91, 6-[2-chloro-3-(trifluoromethyl)phenyl]-4-N-methylpyrimidine-2,4-diamine]"
18,< 200,"CNc1cc(-c2cccc(F)c2Cl)nc(N)n1 [Example 92, 6-(2-chloro-3-fluorophenyl)-4-N-methylpyrimidine-2,4-diamine]"
19,< 200,"CNc1cc(-c2cccc(Cl)c2C)nc(N)n1 [Example 94, 6-(3-chloro-2-methylphenyl)-4-N-methylpyrimidine-2,4-diamine]"
20,< 200,"CNc1cc(-c2cc(OC)cc(Cl)c2Cl)nc(N)n1 [Example 99, 6-(2,3-dichloro-5-methoxyphenyl)-4-N-methylpyrimidine-2,4-diamine]"
21,< 200,"CNc1cc(-c2ccc(O)cc2)nc(N)n1 [Example 100, 4-[2-amino-6-(methylamino)pyrimidin-4-yl]phenol]"
22,< 200,"CNc1cc(-c2ccc(C(=O)N3CCOCC3)c(Cl)c2)nc(N)n1 [Example 104, 6-[3-chloro-4-(morpholine-4-carbonyl)phenyl]-4-N-methylpyrimidine-2,4-diamine]"
23,< 200,"CNc1cc(-c2ccc(/C=C/C(=O)OC)cc2)nc(N)n1 [Example 106, methyl (2E)-3-{4-[2-amino-6-(methylamino)pyrimidin-4-yl]phenyl}prop-2-enoate]"

row,IC50 [nM],SMILES
1,< 200,"CNc1cc(-c2cccc(/C=C/C(=O)OC)c2)nc(N)n1 [Example 107, methyl (2E)-3-{3-[2-amino-6-(methylamino)pyrimidin-4-yl]phenyl}prop-2-enoate]"
2,< 200,"CNc1cc(-c2ccc(C(C)=O)cc2)nc(N)n1 [Example 109, 1-(4-(2-Amino-6-(methylamino)pyrimidin-4-yl)phenyl)ethanone]"
3,< 200,"Cc1cccc(-c2cc(NC3CC3)nc(N)n2)c1C [Example 114, 4-N-cyclopropyl-6-(2,3-dimethylphenyl)pyrimidine-2,4-diamine]"
4,< 200,"CNc1cc(-c2c[nH]c3ccccc23)nc(N)n1 [Example 116, 6-(1H-indol-3-yl)-4-N-methylpyrimidine-2,4-diamine]"
5,< 200,"Cc1cccc(-c2cc(NCCc3ccccc3)nc(N)n2)c1C [Example 118, 6-(2,3-dimethylphenyl)-4-N-(2-phenylethyl)pyrimidine-2,4-diamine]"
6,< 200,"Cc1cccc(-c2nc(N)nc3c2CCCN3)c1C [Example 121, 4-(2,3-dimethylphenyl)-5H,6H,7H,8H-pyrido[2,3-d]pyrimidin-2-amine]"
7,< 200,"Nc1nc2c(c(-c3cccc(Cl)c3Cl)n1)CCCN2 [Example 122, 4-(2,3-dichlorophenyl)-5H,6H,7H,8H-pyrido[2,3-d]pyrimidin-2-amine]"
8,< 200,"Nc1nc2c(c(-c3cn(S(=O)(=O)c4ccccc4)c4ccccc34)n1)CCCN2 [Example 123, 4-[1-(benzenesulfonyl)-1H-indol-3-yl]-5H,6H,7H,8H-pyrido[2,3-d]pyrimidin-2-amine]"
9,< 200,"CNc1cc(-c2cc(F)cc(F)c2)nc(N)n1 [Example 124, 6-(3,5-difluorophenyl)-4-N-methylpyrimidine-2,4-diamine]"
10,< 200,"COc1ccc(CCNc2cc(-c3cccc(C)c3C)nc(N)n2)cc1 [Example 125, 6-(2,3-dimethylphenyl)-4-N-[2-(4-methoxyphenyl)ethyl]pyrimidine-2,4-diamine]"
11,< 200,"Cc1cccc(-c2cc(NCCc3ccc(Cl)cc3)nc(N)n2)c1C [Example 128, 4-N-[2-(4-chlorophenyl)ethyl]-6-(2,3-dimethylphenyl)pyrimidine-2,4-diamine]"
12,< 200,"Cc1cccc(-c2cc(NCC(C)c3ccccc3)nc(N)n2)c1C (stereo not shown) [Example 130, 6-(2,3-dimethylphenyl)-4-N-(2-phenylpropyl)pyrimidine-2,4-diamine]"
13,< 200,"Cc1cccc(-c2cc(NCCNc3ccccc3)nc(N)n2)c1C [Example 133, 6-(2,3-dimethylphenyl)-4-N-[2-(phenylamino)ethyl]pyrimidine-2,4-diamine]"
14,< 200,"Cc1cccc(-c2cc(NCCc3c[nH]c4ccccc34)nc(N)n2)c1C [Example 134, 6-(2,3-dimethylphenyl)-4-N-[2-(1H-indol-3-yl)ethyl]pyrimidine-2,4-diamine]"
15,< 200,"Cc1cccc(-c2cc(NCCN3CCNC3=O)nc(N)n2)c1C [Example 136, 1-(2-{[2-amino-6-(2,3-dimethylphenyl)pyrimidin-4-yl]amino}ethyl)imidazolidin-2-one]"
16,< 200,"Cc1cccc(-c2cc(NCCCN3CCCC3=O)nc(N)n2)c1C [Example 137, 1-(3-{[2-amino-6-(2,3-dimethylphenyl)pyrimidin-4-yl]amino}propyl)pyrrolidin-2-one]"
17,< 200,"CNc1cc(-c2cc(C)c(O)c(C)c2)nc(N)n1 [Example 138, 4-[2-amino-6-(methylamino)pyrimidin-4-yl]-2,6-dimethylphenol]"
18,< 200,"CNc1cc(-c2ccc(O)c(OC)c2)nc(N)n1 [Example 139, 4-[2-amino-6-(methylamino)pyrimidin-4-yl]-2-methoxyphenol]"
19,< 200,"CNc1cc(-c2ccc(O)c(F)c2)nc(N)n1 [Example 140, 4-[2-amino-6-(methylamino)pyrimidin-4-yl]-2-fluorophenol]"
20,< 200,"CNc1cc(-c2ccccc2C)nc(N)n1 [Example 143, 4-N-methyl-6-(2-methylphenyl)pyrimidine-2,4-diamine]"
21,< 200,"CNc1cc(-c2ccc3[nH]ncc3c2C)nc(N)n1 [Example 145, 4-N-methyl-6-(4-methyl-1H-indazol-5-yl)pyrimidine-2,4-diamine]"
22,< 200,"CNc1cc(-c2cccc(C)c2)nc(N)n1 [Example 147, 4-N-methyl-6-(3-methylphenyl)pyrimidine-2,4-diamine]"
23,< 200,"Cc1ccc(S(=O)(=O)n2cc(-c3cc(NC4CCC4)nc(N)n3)c3ccccc32)cc1 [Example 152, 4-N-cyclobutyl-6-[1-(4-methylbenzenesulfonyl)-1H-indol-3-yl]pyrimidine-2,4-diamine]"
